For orientation: IC50 means the midpoint of a concentration-inhibition curve. What is called MIC is the least concentration at which growth counts as inhibited. In general, melting point refers to the temperature, or range, at which the solid turns liquid.

Data on 6 compounds can be found in paper PMC8838521, “Antimicrobial, Cytotoxic and Mutagenic Activity of Gemini QAS Derivatives of 1,4:3,6-Dianhydro-L-iditol” (Molecules, 2022).

The test system of data set [1] is Salmonella typhimurium TA98 strain. Particulars: TA98, no metabolic activation.
Procedure: A Salmonella mutagenicity test was performed with Salmonella typhimurium TA98 strain (Xenometrics AG, Allschwil, Switzerland) without metabolic activation, following the procedure by Mortelmans and Zeiger [52], with modifications reported Golunski et al. [53] […] Subsequently, the mixture was centrifuged, bacterial pellet washed with 0.75% NaCl and resuspended in 300 µL of 0.75% NaCl solution containing 0.1 µmol each of histidine and biotin, and it was then spread on a glucose minimal (GM) plate. […] All experiments were performed in triplicate. The anticancer drug doxorubicin at 90 ng/plate with known mutagenic effect towards S. typhimurium TA98 was used as a positive control.
In data set [2] the test system is human keratinocytes (HaCaT cell line). In words: Cytotoxicity, MTT assay. It is filed as cell-based. Here is the method: To assess the cytotoxicity of QAS (IC50), the MTT assay on 96-well polystyrene plates was performed for human keratinocytes (HaCaT, Elabscience Biotechnology Inc., Houston, Texas, USA). The assay utilizes colorimetric determination of the cell metabolic activity and the color intensity reflects the number of live cells that can be measured spectrophotometrically. The cell line was cultured in a Dulbecco’s modified Eagle Medium (Invitrogen) supplemented with 10% fetal bovine serum (Sigma Aldrich) (v/v), 100 units/mL of penicillin, 100 μg/mL of streptomycin, and 2 mM L-glutamine and was stored at 37 °C in a humidified 5% CO2 incubator. Briefly, a day after plating of 500 cells per well, a series of concentrations (0.5–200 μg/mL) of the test compounds was applied. DMSO was added to the control cells at a final concentration of 1.0% (v/v), which was related to the maximal concentration of the solvent compounds used in the experiment. After 24 h of incubation with the QAS at 37 °C (humidified 5% CO2 incubator), a medium containing 1 mg/mL of MTT (3-(4,5-dimethylthiazol-2-yl)-2,5-diphenyltetrazolium bromide) was added to the wells up to a final concentration of 0.5 mg/mL. Subsequently, the plates were incubated at 37 °C for 4 h. Then, the medium was removed by suction, and the formazan product was solubilized with DMSO. The background absorbance at 630 nm was subtracted from that at 570 nm for each well (Epoch, BioTek Instruments, Winooski, VT, USA). Six replicates were conducted for each concentration. All experiments were repeated at least twice and the resulting IC50 values were calculated with GraFit 7 software (v. 7.0, Erithacus, Berkley, CA, USA).

In data set [3] the test system is Staphylococcus aureus ATCC 25923. Description: Antimicrobial activity, microdilution MIC, S. aureus reference strain. It is filed as cell-based. Here is the method:
(§1) The antimicrobial potential of the tested agents was evaluated against two reference strains of bacteria: Staphylococcus aureus ATCC 25923 and Escherichia coli K12, two reference strains of pathogenic yeasts, Candida albicans ATCC10231 and Candida glabrata DSMZ11226, as well as 20 strains of clinical isolates of S. aureus collected from patients with skin and soft tissue infections (n = 8) and strains derived from subclinical bovine mastitis milk samples (n = 12). Four of these strains, two isolated from human infections and two isolated from bovine mastitis, were classified as MRSA (Methicillin-resistant Staphylococcus aureus). All of them were mecA positive and their methicillin resistance was confirmed with the disc diffusion assay. The remaining 16 strains were MSSA (Methicillin-sensitive Staphylococcus aureus). The assays were performed using a serial, two-fold dilution method in 96-well microtiter plates under conditions recommended by the Clinical and Laboratory Standards Institute (CLSI, Pittsburgh, PA, USA). The aim of this procedure was the determination of the MIC parameter (Minimum Inhibitory Concentration)—the minimum concentration of a tested agent capable to inhibit the growth of a specified strain of microorganism. The agents were solubilized in deionized, sterile water to a final concentration of […]. Subsequently, solutions were mixed (1:1 (v/v)) with 2 × concentrated liquid medium, Mueller-Hinton Broth 2—cation adjusted (MHB2) for evaluation of antibacterial activity and RPMI in the case of evaluation of the antifungal activity. […] Subsequently, the solutions were mixed with MHB2 or RPMI medium to get the final concentration of 8.192 mg/mL (8192 µg/mL). In the next step, the serial, two-fold dilutions of the tested agents (over the range of concentrations from 8192 to 8 µg/mL for reference strains of bacteria and yeasts and from 512 to 1.0 µg/mL for clinical isolates of S. aureus) were prepared in 96-well microtitration plates in the final volume of 100 μL of the appropriate medium.
(§2) The pure bacterial cultures of (both the reference and clinical strains) were grown on the Mueller-Hinton Agar (MHA) for 18–24 h at 37 °C. A small amount of the biomass of the culture of each strain of microorganisms was suspended in the sterile PBS (phosphate buffered saline, pH 7.4 at 25 °C, purchased from Sigma) solution to get an optical density OD600 = 0.13 (equal to the cells concentration approximately 1 × 10^8 CFU/mL). The obtained suspensions of the cells were next diluted 1:100 (v/v) in the MHB2 medium. One hundred µL of the cells’ suspension was finally loaded into the wells of plates prepared in advance, which contained 100 µL of two-fold dilutions of the tested agents (the final concentration of the bacterial cells in all wells was approximately 5 × 10^5 CFU/mL).
(§3) The pure cultures of yeast strains were grown on the Sabouraud Dextrose Agar (SDA) for 18–24 h at 37 °C. Suspensions of the microorganisms were prepared by taking one loop of pure culture into sterile water and adjusting optical density to 0.1 at 660 nm and further 50-fold dilution in RPMI 1640 medium resulting in cells concentration of approximate 2 × 10^4 CFU/mL. One hundred μL of that suspension was inoculated to the wells of the microtitration plate containing appropriate dilutions of the agents. The positive growth control of each strain (both bacteria and yeasts) was performed in the wells without the tested substances. The negative control containing only the media was included in each assay. Microtiter plates were incubated at 37 °C for 24 h. Following the incubation period, determination of the MIC values of the tested agents was carried out by measuring the absorbance at 531 nm using a Victor^3 microplate reader (Perkin Elmer, Inc., Waltham, MA, USA). The lowest concentration of the agent causing inhibition of growth equal to or higher than 90% (MIC90) of growth control was taken as the MIC value. Each test was repeated three times. […]
A general note: In broth dilution the organism is exposed to a series of concentrations in liquid medium.

Data set [4] in a line: Solubility observed during assays. It is filed as physicochemical. Particulars: observed during antimicrobial assays; DMSO used for solubilisation.
Data set [5] deals with Candida glabrata DSMZ 11226. Description: Antimicrobial activity, microdilution MIC, C. glabrata. It is filed as cell-based. Here is the method: as §1
(§4) The pure cultures of yeast strains were grown on the Sabouraud Dextrose Agar (SDA) for 18–24 h at 37 °C. Suspensions of the microorganisms were prepared by taking one loop of pure culture into sterile water and adjusting optical density to 0.1 at 660 nm and further 50-fold dilution in RPMI 1640 medium resulting in cells concentration of approximate 2 × 10^4 CFU/mL. One hundred μL of that suspension was inoculated to the wells of the microtitration plate containing appropriate dilutions of the agents. The positive growth control of each strain (both bacteria and yeasts) was performed in the wells without the tested substances. The negative control containing only the media was included in each assay. Microtiter plates were incubated at 37 °C for 24 h. Following the incubation period, determination of the MIC values of the tested agents was carried out by measuring the absorbance at 531 nm using a Victor^3 microplate reader (Perkin Elmer, Inc., Waltham, MA, USA). The lowest concentration of the agent causing inhibition of growth equal to or higher than 90% (MIC90) of growth control was taken as the MIC value. Each test was repeated three times.

In data set [6] the test system is Escherichia coli K12. In words: Antimicrobial activity, microdilution MIC, E. coli. It is filed as cell-based. How it is done:
as §1, §2, §3

Data set [7] deals with Candida albicans ATCC 10231. Description: Antimicrobial activity, microdilution MIC, C. albicans. It is filed as cell-based. The following applies: Candida albicans, ATCC10231, 24 h, read-out: MIC C. albicans ATCC 10231, MIC90, 24 h, RPMI. How it is done: as §1, §4
Data set [8] has as its system Candida albicans ATCC 10231. The arrangement: method as in PMID 16459482. Particulars: strain not stated; cited from earlier work.
The subject of data set [9] is Staphylococcus aureus ATCC 25923. Details: method as in PMID 23669380. Particulars: strain not stated; cited from earlier work.
Data set [10] relates to Escherichia coli K12. The following applies: strain not stated; cited from earlier work.

Counter-ions that a name gives are not always drawn. Like-named read-outs stand apart in the source and are kept apart here. A value given as a limit tells only on which side of the number the result lay.

Consider `CCCCCC[N+](C)(C)C1COC2C1OCC2[N+](C)(C)CCCCCC` [QAS 8, N,N’-(1,4:3,6-Dianhydro-2,5-dideoxy-L-iditol-2,5-diyl)-bis(N,N-dimethyl-N-hexylammonium) Ditrifluoromethanesulfonate], for which the “Number of Revertants” value in data set [1] (concentration 4 µg/plate) came out at 14.7 ± 5.1; in data set [1] (concentration 20 µg/plate), 15.7 ± 1.5; in data set [1] (concentration 100 µg/plate), 11.0 ± 7.5; in data set [1] (concentration 500 µg/plate), 12.3 ± 3.5; in data set [1] (concentration 2000 µg/plate), 12.7 ± 3.2. Further, the IC50 in [2] (Homo sapiens, HaCaT, 24 h, read-out: HaCaT IC50) was over 100 µg/mL. For the same compound, in data set [3] (MIC90, 24 h, MHB2), the “MIC S. aureus ATCC 25923” value was found to be 2048 µg/mL. The MIC is over 4000 µg/mL in data set [3] (Staphylococcus aureus, ATCC25923, 24 h, read-out: MIC S. aureus ATCC 25923, MIC90, 24 h, MHB2); over 4000 µg/mL in [5] (Nakaseomyces glabratus, DSMZ11226, 24 h, read-out: MIC C. glabrata DSMZ 11226, MIC90, 24 h, RPMI); over 4000 µg/mL in data set [6] (Escherichia coli, K12, 24 h, read-out: MIC E. coli K12, MIC90, 24 h, MHB2); over 4000 µg/mL in data set [7]. Further, the Solubility in water result in [4] was “lower solubility in water”. The “MIC C. glabrata DSMZ 11226” value in data set [5] (MIC90, 24 h, RPMI) came out at 2048 µg/mL. In addition, in [6] (MIC90, 24 h, MHB2), the “MIC E. coli K12” value was over 4096 µg/mL.
Compound `CCCCCC[N+](C)(C)C1COC2C1OCC2[N+](C)(C)CCCCCC` (as salt: methanesulfonate) [QAS 8, N,N’-(1,4:3,6-Dianhydro-2,5-dideoxy-L-iditol-2,5-diyl)-bis(N,N-dimethyl-N-hexylammonium) Ditrifluoromethanesulfonate] registered a melting point of 222.8 to 224 °C.
Turning to `Cn1cc[n+](C2COC3C2OCC3[n+]2ccn(C)c2)c1` (as salt: methanesulfonate) [QAS 6, N,N’-(1,4:3,6-Dianhydro-2,5-dideoxy-L-iditol-2,5-diyl)-bis(N-methylimidazolium) Ditrifluoromethanesulfonate], the melting point lay within 90.5 to 93.7 °C.
Take `NC(=O)c1ccc[n+](C2COC3C2OCC3[n+]2cccc(C(N)=O)c2)c1` (as salt: methanesulfonate) [QAS 5, N,N’-(1,4:3,6-Dianhydro-2,5-dideoxy-L-iditol-2,5-diyl)-bis[(3-carboxamide)pyridinium] Ditrifluoromethanesulfonate]: the melting point fell in the range of 63.5 to 65.2 °C.
For `CCCCCCCCCC[N+](C)(C)C1COC2C1OCC2[N+](C)(C)CCCCCCCCCC` (as salt: methanesulfonate) [QAS 10, N,N’-(1,4:3,6-Dianhydro-2,5-dideoxy-L-iditol-2,5-diyl)-bis(N,N-dimethyl-N-decylammonium) Ditrifluoromethanesulfonate], the melting point is 191 °C (dec.).
As to Benzalkonium chloride [BAC], the “MIC against C. albicans” value in data set [8] was 8 µg/mL. Also, in data set [2] (MTT, 24 h incubation), the “HaCaT IC50” value was 1.1 ± 1.4 µg/mL. For the same compound, the “MIC against S. aureus” value in [9] is 2 µg/mL. Besides, the “MIC against E. coli” value in [10] was 13 µg/mL.
